These results are taken from EP0057900B1, “Animal feed additive for improving growth” (Dr. Karl Thomae GmbH, priority 1981, dated 1982).

Data set [1] in a line: Acute toxicity in mice after i.v. administration. In kind it is in vivo, Mäusen. The conditions noted are these: mouse, in vivo, iv, mean weight 22 g, i. v. in physiological saline, dose at which 50% of animals died, observation time 14 days, Litchfield and Wilcoxon. The source says: (§1) Die akute Toxizität der zu untersuchenden Substanzen, welche in physiologischer Kochsalzlösung gelöst wurden, wurde an Mäusen mit einem durchschnittlichen Gewicht von 22 g nach i. v. Gabe (0.1 mt/10 g) bestimmt. Es wurde die LD50, die Dosis bei welcher 50% der Tiere nach einer Beobachtungszeit von 14 Tagen verstarben, nach der Methode von Litchfield und Wilcoxon (J. Pharmacol. exp. Ther. 96, 99-113 (1949)) berechnet.

Data set [2] concerns Mäusen. Briefly: Acute toxicity in mice after i.v. administration. It counts as in vivo. The conditions noted are these: mean weight 22 g, i. v. in physiological saline, dose at which 50% of animals died, observation time 14 days, Litchfield and Wilcoxon.
Excerpt: as §1

In data set [3] the test system is Fettsäuregehalt des Blutes. Briefly: Lipolytic effect in rabbits (blood fatty acid content, method of Duncombe). In kind it is in vivo, Kaninchen. As to conditions: Oryctolagus cuniculus, iv; male and female rabbits, mean weight 2,3 kg; i. v. in physiological saline; dose causing a 50% reduction of blood fatty acid content; calculated according to Fieler; read-out: ED50 µg/kg i. v. The source says: Beispielsweise wurde die lipolytische Wirkung der Verbindungen • A = 1-(4-Amino-3-cyan-5-fluor-phenyl)-2-tert.butylamino-äthanol-hydrochlorid, • B = 1-(4-Amino-3-cyan-5-fluor-phenyl)-2-isopropylamino-äthanol-hydrochforid, • C = 1-(4-Amino-3-cyan-5-fluor-phenyl)-2-cyclobutylamino-äthanol-hydrochlorid, • D = 1-(4-Amino-3-chlor-5-cyan-phenyl)-2-isopropylamino-äthanol-hydrochlorid, • E = 1-(4-Amino-3-chlor-5-cyan-phenyl)-2-cyclobutylamino-äthanol-hydrochlorid, • F = 1-(4-Amino-3-chlor-5-cyan-phenyl)-2-cyclopentylamino-äthanol-hydrochlorid und • G = 1-(4-Amino-3-chlor-5-trifluormethylphenyl)-2-cyclobutylamino-äthanor-hydrochlorid
an Kaninchen wie folgt geprüft:
Die zu untersuchenden Substanzen wurden männlichen und weiblichen Kaninchen mit einem durchschnittlichen Gewicht von 2,3 kg, gelöst in physiologischer Kochsalzlösung i. v. injiziert (0,2 mg/kg). Der Fettsäuregehalt des Blutes wurde nach der Methode von Duncombe (Biochem. J. 88, 7-10 (1963)) bestimmt. Es wurde die EDso, die Dosis, die eine 50%ige Senkung des Fettsäuregehaltes bewirkt, nach Fieler (Quart. J. Pharm. Pharmacol. 17, 117―123 (1964)) berechnet.

Structures can show the parent of a compound that is named as a salt.

What is called LD50 is the dose expected to kill half of the subjects tested. Lower therefore signals greater toxicity. Turning to `CC(C)(C)NCC(O)c1cc(F)c(N)c(C#N)c1` (stereo not shown) [A, 1-(4-Amino-3-cyan-5-fluor-phenyl)-2-tert.butylamino-äthanol-hydrochlorid], the LD50 at 336 h in data set [1] is 73.6 mg/kg.
`CC(C)NCC(O)c1cc(F)c(N)c(C#N)c1` (stereo not shown) [B, 1-(4-Amino-3-cyan-5-fluor-phenyl)-2-isopropylamino-äthanol-hydrochforid]: in data set [2], the “LD50 mg/kg i. v.” value is given as 66,4 mg/kg.
On to `CC(C)NCC(O)c1cc(Cl)c(N)c(C#N)c1` (stereo not shown) [D, 1-(4-Amino-3-chlor-5-cyan-phenyl)-2-isopropylamino-äthanol-hydrochlorid], for which the LD50 at 336 h in data set [1] was found to be 81 mg/kg.
On to `N#Cc1cc(C(O)CNC2CCCC2)cc(Cl)c1N` (stereo not shown) [F, 1-(4-Amino-3-chlor-5-cyan-phenyl)-2-cyclopentylamino-äthanol-hydrochlorid], for which the ED50 in data set [3] is 0.16 µg/kg. Besides, in data set [2], the “LD50 mg/kg i. v.” value is reported as 39,1 mg/kg.
For the molecule `Nc1c(Cl)cc(C(O)CNC2CCC2)cc1C(F)(F)F` (stereo not shown) [G, 1-(4-Amino-3-chlor-5-trifluormethylphenyl)-2-cyclobutylamino-äthanor-hydrochlorid], the ED50 in data set [3] is 0.46 µg/kg.
In turn, `N#Cc1cc(C(O)CNC2CCC2)cc(Cl)c1N` (stereo not shown) [Verbindung E, 1-(4-Amino-3-chlor-5-cyan-phenyl)-2-cyclobutylamino-äthanol-hydrochlorid] displayed a median lethal dose (LD50) at 336 h in data set [1] of 43.9 mg/kg.
